Reference: patent US9629830B2, “EphA4 inhibitors as neuroprotective agents” (The Hong Kong University of Science and Technology, priority 2013, dated 2017)
“Also recorded” adds a separate entry of the source.

Experiments:
Tg2576 mutant mice = assay: HFS-induced hippocampal LTP in WT and Tg2576 mice after oral treatment; format: in vivo, mouse
Source text: APP/PS1 double-transgenic mice were obtained from Jackson Laboratory (B6C3-Tg[APPswe, PSEN1dE9]85Dbo/J)^66. These mice were generated by incorporating a human/murine APP construct bearing the Swedish double mutation and the exon-9-deleted PSEN1 mutation (APPswe+PSEN1/dE9). APP transgenic mice (Tg2576) expressing a double mutant of human AβPP (Lys^670→Asn^670, Met^671→Leu^671) were also used^31. Both sexes were used for experiments, and all mice used in this study were produced by the Animal Care Facility of The Hong Kong University of Science and Technology. The genotype was confirmed by polymerase chain reaction analysis of tail biopsies. Four to five mice of the same sex were housed in a cage with food and water ad libitum with a 12-hour light/dark cycle.
To investigate the effect of blocking EphA4 signaling by KYL peptide in AD mice, 4-5-month-old AD transgenic mice were implanted with Alzet mini-osmotic pumps, model 1004, pumping its contents at 0.11 μL/h for 28 days. Pumps were loaded with either 0.23 μg/μL KYL peptide (17 μg) or vehicle solvent in artificial cerebrospinal fluid (CSF). The mini-osmotic pumps were adjusted intracerebroventricularly in the right hemisphere. […]
For LTP recordings, mouse brains were immediately dissected after sacrifice and soaked in ice-cold 95% O2/5% CO2 (aCSF)^58. […] For treatment with EphA4 inhibitors, the slices were pretreated with peptides or chemicals for 1 h before application of Aβ. fEPSPs were recorded using a MED64 multichannel recording system, and the data were collected from the dendritic layer of area CA1 at a sampling rate of 10 kHz. For each slice, the baseline stimulus intensity was set at the level that elicited ˜50% of the maximum fEPSP response determined according to the input-output curve. […] The magnitude of LTP was quantified as a percentage change in the fEPSP slope (10%-90%) taken during the 60-min interval after LTP induction.

[1] = target: T1, extracellular domain of EphA4 (Homo sapiens, UniProt P54764); assay: In vitro pull-down of recombinant EphA4-Fc with biotinylated Rhy on streptavidin beads; format: binding; settings: western blot
T1 construct: purchased R&D Systems
T1 sequence (P54764 20-547 limits assumed): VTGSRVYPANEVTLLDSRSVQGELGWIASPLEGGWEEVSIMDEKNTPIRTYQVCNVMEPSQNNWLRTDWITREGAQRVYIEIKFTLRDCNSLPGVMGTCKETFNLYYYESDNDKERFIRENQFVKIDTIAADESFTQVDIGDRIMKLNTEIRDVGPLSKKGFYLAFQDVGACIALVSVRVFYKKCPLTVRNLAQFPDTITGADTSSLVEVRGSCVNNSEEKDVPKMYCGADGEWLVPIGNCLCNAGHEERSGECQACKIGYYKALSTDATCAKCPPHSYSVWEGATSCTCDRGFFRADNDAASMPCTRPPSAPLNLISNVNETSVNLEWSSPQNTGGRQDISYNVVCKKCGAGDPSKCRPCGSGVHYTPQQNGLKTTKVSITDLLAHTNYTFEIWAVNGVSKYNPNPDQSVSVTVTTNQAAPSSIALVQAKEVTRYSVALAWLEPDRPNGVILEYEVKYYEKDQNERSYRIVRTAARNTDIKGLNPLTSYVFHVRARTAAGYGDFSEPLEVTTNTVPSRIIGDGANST
Method: For the pull-down analysis, Bio-Rhy was bound to streptavidin magnetic beads for 1 h, the beads was then incubated with recombinant EphA4-Fc or EphB2-Fc in the presence of 0.5% BSA for 1 h. After incubation, the beads were washed 4 times with DPBS and the presence of Eph in the complex was determined by western blot analysis.

[2] = system: Aβ-induced impairment of hippocampal LTP; assay: HFS-induced LTP (fEPSP slope) in acute hippocampal slices treated with Aβ; format: cell-based, mouse
Method: Oligomeric Aβ (Aβ) was prepared as described previously^59,60. Briefly, 0.5 mg monomeric Aβ1-42 was dissolved in 22.2 μL dry DMSO and then diluted in ice-cold phenol-red free F-12 medium to yield a final Aβ concentration of 100 μM. The Aβ solution was incubated at 4° C. for 24 h and then centrifuged at 14,000×g for 10 min. The supernatant was frozen in liquid nitrogen and stored at −20° C. for up to 1 month. Unless specified, cultured neurons or hippocampal slices were typically treated with Aβ at 500 nM.
For LTP recordings, mouse brains were immediately dissected after sacrifice and soaked in ice-cold 95% O2/5% CO2 (aCSF)^58. Brain slices (300 μm thick) were prepared using a vibrating tissue slicer (HM650V; Thermo), and soaked in oxygenated buffer for 2 h at 32° C. The hippocampal regions were resected and placed at the center of a MED-P210A probe (Panasonic International Inc) with 64 embedded recording electrodes. The slices were then perfused with Aβ at 500 nM in oxygenated aCSF for 2 h before LTP induction^70. For treatment with EphA4 inhibitors, the slices were pretreated with peptides or chemicals for 1 h before application of Aβ. fEPSPs were recorded using a MED64 multichannel recording system, and the data were collected from the dendritic layer of area CA1 at a sampling rate of 10 kHz. For each slice, the baseline stimulus intensity was set at the level that elicited ˜50% of the maximum fEPSP response determined according to the input-output curve. LTP was induced by 3 trains of HFS (100 Hz, 1 s, delivered 30 s apart). The magnitude of LTP was quantified as a percentage change in the fEPSP slope (10%-90%) taken during the 60-min interval after LTP induction.

NMDA receptors = assay: NMDA current in hippocampal neurons; format: cell-based; settings: data not shown
NMDA receptor = settings: subsequent study; cited from earlier work
[3] = In vitro stability assay in mouse serum (UPLC-MS/MS); format: in vitro ADME; settings: 3 μM, over the 360-min incubation period
EphA4 (HT-22 cells) = target: T2, EphA4 (HT-22 cells) (Mus musculus, UniProt Q03137); assay: Cell-based binding of biotinylated ephrin-A1 to the surface of HT-22 cells; settings: 10 min pre-incubation; Rhy 300 μM, KYL 100 μM (FIG. 10); biotinylated ephrin-A1 0.5 μg/mL
T2 construct: HT-22 cells, a cell line that expresses EphA4; endogenous in cells; host or cells: HT-22 cells
T2 sequence (Q03137 20-986): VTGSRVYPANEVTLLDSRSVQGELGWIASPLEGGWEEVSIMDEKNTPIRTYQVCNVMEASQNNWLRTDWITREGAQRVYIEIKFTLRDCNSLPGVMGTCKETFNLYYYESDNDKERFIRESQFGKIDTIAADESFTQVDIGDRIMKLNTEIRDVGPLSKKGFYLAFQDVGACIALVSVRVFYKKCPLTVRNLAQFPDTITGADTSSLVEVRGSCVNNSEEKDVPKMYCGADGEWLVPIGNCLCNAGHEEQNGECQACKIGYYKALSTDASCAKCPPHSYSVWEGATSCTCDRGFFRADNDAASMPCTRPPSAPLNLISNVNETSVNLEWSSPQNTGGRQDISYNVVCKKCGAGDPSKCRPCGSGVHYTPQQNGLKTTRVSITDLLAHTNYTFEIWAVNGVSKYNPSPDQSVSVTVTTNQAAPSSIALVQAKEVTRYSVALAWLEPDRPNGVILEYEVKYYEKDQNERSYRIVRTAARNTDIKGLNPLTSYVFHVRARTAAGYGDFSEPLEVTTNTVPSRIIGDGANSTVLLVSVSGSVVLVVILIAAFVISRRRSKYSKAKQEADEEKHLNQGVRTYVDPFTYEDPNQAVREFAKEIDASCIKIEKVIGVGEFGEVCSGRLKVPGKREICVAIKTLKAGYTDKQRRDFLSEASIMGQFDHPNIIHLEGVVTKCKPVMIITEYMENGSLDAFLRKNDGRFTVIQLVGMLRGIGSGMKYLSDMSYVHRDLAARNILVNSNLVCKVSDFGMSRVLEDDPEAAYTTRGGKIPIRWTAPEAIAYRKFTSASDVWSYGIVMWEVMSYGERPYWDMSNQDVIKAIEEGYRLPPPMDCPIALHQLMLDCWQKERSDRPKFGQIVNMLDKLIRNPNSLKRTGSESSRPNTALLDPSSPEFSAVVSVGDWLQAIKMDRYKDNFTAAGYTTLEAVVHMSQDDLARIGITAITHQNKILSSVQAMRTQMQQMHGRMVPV
Method: HT-22 cells were seeded on poly-D-lysine coverslips. […] The cells were then fixed with 4% paraformaldehyde and then immunostained with Alexa Fluor 488-conjugated Streptavidin antibody (Molecular Probes) for surfacing labeling of biotinylated ephrin-A1.

SMILES: CC[C@H]1CN2CC[C@]3(C(=O)Nc4ccccc43)[C@@H]2C[C@@H]1/C(=C\OC)C(=O)OC [Rhy, methyl (7β,16E,20α)-16-(methoxymethylene)-2-oxocorynoxan-17-oate]
- mean fEPSP slope, last 10 min after LTP induction (Tg2576 mutant mice; Tg2576 mice, Rhy oral 20 mg·kg−1·day−1 for 3 weeks, Tg Con 119.0±3.7%): 161.9±2.9%
- mean fEPSP slope, last 10 min after LTP induction (Tg2576 mutant mice; Tg2576 mice, Rhy oral 50 mg·kg−1·day−1 for 3 weeks, Tg Con 119.0±3.7%): 159.7±17.9%
- mean fEPSP slope, last 10 min after LTP induction (Tg2576 mutant mice; WT mice, Rhy oral 20 mg·kg−1·day−1 for 3 weeks, WT Con 170.1±9.7%): 167.3±5.2%
- binding to the extracellular domain of EphA4 (pull-down, words) [1]: binds the extracellular domain of EphA4
- mean fEPSP slope, last 10 min after LTP induction ([2]; Rhy 30 μM + Aβ, Aβ alone 131.1±3.9%): 174.1±9.8%
- mean fEPSP slope, last 10 min after LTP induction ([2]; Rhy 30 μM alone, control 172.7±7.5%): 168.1±6.0%
- inhibition of NMDA current in hippocampal neurons (NMDA receptors): unable to inhibit NMDA current
- binding to NMDA receptor (NMDA receptor): neither binds to NMDA receptor
- reduction of Rhy concentration in serum [3]: ~20%
- binding of ephrin-A1 to HT-22 cells (EphA4 (HT-22 cells)): reduced the binding of ephrin-A1 to HT-22 cells; also recorded: reduces the binding of ephrin-A1 to the surface of HT22 cells
